In brackets after ≈: the same amount, converted by molar mass.

The text below walks through data of patent US4923853A, “Process for enhancing the activity of plant protecting agents by using cyclodextrin” (Chinoin Gyogyszer Es Vegyeszeti Termekek Gyara R.T., priority 1985, dated 1990).

The conditions of data set [1]: cited from earlier work.
For data set [2], the system named is test fungi. Description: Fungicidal activity of metomeclan with cyclodextrin, general statement. It is filed as cell-based. The procedure: The following tests substantiate the surprising synergism between known fungicides and β-cyclodextrin. Stable, highly dispersed aqueous suspensions of the test materials are added to agar nutrient media in the desired concentration (0.1-200 μg/ml), whereupon the nutrient media are poured into Petri-dishes. Mycelium discs are cut out from the surfacial cultures of the test fungi and the discs are placed into the Petri-dishes containing the test materials. Incubation is carried out in thermostate whereupon the increase of the diameter of the colonies is measured and compared to that of the control. The tests are carried out in three replicates.

The conditions of data set [3]: cited from earlier work; for duration of pesticide activity: on forming complexes with cyclodextrin.
For data set [4] the following is noted: cited from earlier work; for volatility of the active ingredient: on forming complexes with cyclodextrin.
In data set [5] the test system is wheat powdery mildew. In words: In vivo test on wheat-powdery mildew (host-parasite). Here is the method: In vivo tests are carried out on wheat-powdery mildew (host-parasite) by using a combination of phenarimol [2,4'-dichloro-α--(pyrimidine-5-yl)-diphenyl-ethanol] and β-cyclodextrin. The tests are carried out in three replicates in phytotrone under usual experimental system and environmental conditions (20° C., humidity 90%, light intensity 9000 lux.) In culturing dishes (diameter 11 cm) as average 160 plants (5-6 cm stage) are treated with 8 ml of stable aqueous suspensions comprising the test material. The inhibition activity is calculated on the basis of the Hinfner-Papp formula by using the infectedness index.

A short description of data set [6]: Solubility of benomyl under the effect of β-cyclodextrin (shaking in water, UV). As to conditions: water 25° C.; for solubility thermodynamic at 10 min / solubility thermodynamic at 20 min / solubility thermodynamic at 40 min / solubility thermodynamic at 80 min / solubility thermodynamic at 2 h: water, read-out: Amount of dissolved benomyl. The format is physicochemical. Here is the method: (Benomyl and benomyl+β-cyclodextrin, respectively, are shaken in water at 25° C., the samples are filtered and the dissolved benomyl contents of the filtrates are determined by UV spectrophotometry).

A short description of data set [7]: Solubility of benomyl from various materials incl. Fundazol under the effect of β-cyclodextrin. The format is physicochemical. The procedure:
Benomyl is put on the market under the commercial name Fundazol 50 WP; benomyl active ingredient content: 50%. In Table 3 the solubility data of benomyl, a mixture of benomyl and cyclodextrin, Fundazol 50 WP, and a mixture of Fundazol 50 WP and cyclodextrin are shown. In each experiment […] of the test substance are weighed in and shaken at 25° C. Benomyl is a 100% active ingredient; the benomyl content of the benomyl/cyclodextrin mixture amounts to 17.3%; the benomyl content of Fundazol 50 WP is 50%; the benomyl content of the mixture of Fundazol 50 WP and cyclodextrin amounts to 8.65%.
2000 μg/ml of solid material are weighed in which corresponds to the following amounts of benomyl:
in the case of benomyl: 2000 μg/ml
in the case of benomyl+β-CD: 350 μg/ml++1650 μg β-CD
in the case of Fundazol 50 WP: 1000 μg/ml
in the case of Fundazol 50 WP+β-CD: 175 μg/ml++1650 μg β-CD.

[8] abbreviates: 10 minutes, weighed in 1000 μg/ml benomyl, or 170 μg benomyl + 830 μg/ml β-CD.
Setting [9] is: 10 minutes, weighed in 5000 μg/ml benomyl, or 850 μg benomyl + 4150 μg/ml β-CD.
[10] abbreviates: 20 minutes, weighed in 1000 μg/ml benomyl, or 170 μg benomyl + 830 μg/ml β-CD.
The mark [11] stands for this setting: 20 minutes, weighed in 5000 μg/ml benomyl, or 850 μg benomyl + 4150 μg/ml β-CD.
[12] abbreviates: 40 minutes, weighed in 1000 μg/ml benomyl, or 170 μg benomyl + 830 μg/ml β-CD.
The mark [13] stands for this setting: 40 minutes, weighed in 5000 μg/ml benomyl, or 850 μg benomyl + 4150 μg/ml β-CD.
The mark [14] stands for this setting: 80 minutes, weighed in 1000 μg/ml benomyl, or 170 μg benomyl + 830 μg/ml β-CD.
Where [15] appears, read: 80 minutes, weighed in 5000 μg/ml benomyl, or 850 μg benomyl + 4150 μg/ml β-CD.
[16] abbreviates: 120 minutes, weighed in 1000 μg/ml benomyl, or 170 μg benomyl + 830 μg/ml β-CD.
Setting [17] is: 120 minutes, weighed in 5000 μg/ml benomyl, or 850 μg benomyl + 4150 μg/ml β-CD.

Consider `COCC1CC(=O)N(c2cc(Cl)cc(Cl)c2)C1=O` (stereo not shown) [Metomeclan, 1-(3,5-dichlorophenyl)-3-methoxymethyl-pyrrolidine-2,5-dione], for which the solubility in water entry in data set [1] is given as “insoluble in water”. Besides, the “activity on addition of cyclodextrin (in words)” value in data set [2] is listed as “significantly increased”.

For `CCN(CC)C(=O)SCc1ccc(Cl)cc1` [bentiocarb, S-4-chlorobenzyl-diethylthio carbamate], in data set [3], the “duration of pesticide activity” value is reported as “remains sufficient for a longer period of time”. In data set [4], the “volatility of the active ingredient” value is given as “significantly decreased”.

With `CCSC(=O)N1CCCCCC1` [molinate, S-ethyl-N,N-hexamethylene-thiocarbamate], the “duration of pesticide activity” value in data set [3] is “remains sufficient for a longer period of time”. Further, in data set [4], the “volatility of the active ingredient” value was “significantly decreased”.

Take `COC(=O)Nc1nc2ccccc2[nH]1` [methyl-benzimidazole carbamate, 2-carbomethoxyamino-benzimidazole]: in data set [1], the solubility in water result is listed as “still less soluble in water”.

In the case of `OC(c1ccc(Cl)cc1)(c1cncnc1)c1ccccc1Cl` (stereo not drawn) [Phenarimol, 2,4'-dichloro-α-(pyrimidine-5-yl)--diphenyl-methanol], the Inhibition activity % was found to be 29.4% in data set [5] (phenarimol concentration 0.625 μg/ml); 73.5% in data set [5] (phenarimol concentration 1.25 μg/ml); 87.2% in data set [5] (phenarimol concentration 2.5 μg/ml); 99.4% in data set [5] (phenarimol concentration 5 μg/ml); 100.0% in data set [5] (phenarimol concentration 10 μg/ml).

In the case of `O=P(O)(O)CCCl`, the “ethylene release on contacting with plant tissue” value in data set [3] (complex with cyclodextrin) was “long-lasting process”.

With `COP(=O)(OC)OC=C(Cl)Cl` [dichlorphos, 2,2--dichlorovinyl-dimethyl-phosphate], the “duration of pesticide activity” value in data set [3] is recorded as “remains sufficient for a longer period of time”. Further, the “volatility of the active ingredient” value in data set [4] is “significantly decreased”.

As to `N#Cc1c(Cl)cccc1Cl` [dichlobenyl, 2,6-dichloro-benzonitrile], the sublimation result in data set [4] (uncomplexed, inhibited by forming complex with cyclodextrin) is “easily sublimates”.

In the case of `CCCCNC(=O)n1c(NC(=O)OC)nc2ccccc21` [benomyl, 1-butylcarbamoyl-benzimidazole-2-methyl-carbamate], in data set [1] (to methyl-benzimidazole carbamate), the “decomposition when dissolved in water” value is on record as “rapidly decomposes”. Moreover, in data set [1], the solubility in water result was “poorly soluble in water”. In addition, the “Amount of dissolved benomyl, %” value in data set [6] (setting [8]) is recorded as 0.2%; in data set [6] (setting [9]), 0.07%; in data set [6] (setting [10]) it was 0.3%; in data set [6] (setting [11]), 0.08%; in data set [6] (setting [12]) it was 0.45%; in data set [6] (setting [13]), 0.12%. Moreover, the “Amount of dissolved benomyl, %” value in data set [6] (setting [14]) amounted to 0.5%; in data set [6] (setting [15]), 0.16%; in data set [6] (setting [16]), 0.5%; in data set [6] (setting [17]), 0.19%. Further, the solubility thermodynamic at 10 min was determined as 2 µg/mL in data set [6] (setting [8]); 3.5 µg/mL in data set [6] (setting [9]); 2 µg/mL (≈ 6.89 µM) in data set [7] (10 minutes, shaking in water at 25° C., read-out: Dissolved benomyl). The solubility thermodynamic at 20 min in data set [6] (setting [10]) was 3 µg/mL; in data set [6] (setting [11]) it was 4 µg/mL; in data set [7] (20 minutes, shaking in water at 25° C., read-out: Dissolved benomyl) it was 5 µg/mL (≈ 17.2 µM). Moreover, the solubility thermodynamic at 40 min was found to be 4.5 µg/mL in data set [6] (setting [12]); 6 µg/mL in data set [6] (setting [13]); 6 µg/mL (≈ 20.7 µM) in data set [7] (40 minutes, shaking in water at 25° C., read-out: Dissolved benomyl). In addition, the solubility thermodynamic at 80 min in data set [6] (setting [14]) amounted to 5 µg/mL; in data set [6] (setting [15]) it was 8 µg/mL; in data set [7] (80 minutes, shaking in water at 25° C., read-out: Dissolved benomyl), 7 µg/mL (≈ 24.1 µM). Moreover, the solubility thermodynamic at 2 h in data set [6] (setting [16]) came out at 5 µg/mL; in data set [6] (setting [17]), 9.5 µg/mL; in data set [7] (120 minutes, shaking in water at 25° C., read-out: Dissolved benomyl) it was 8 µg/mL (≈ 27.6 µM). The solubility thermodynamic at 160 min in data set [7] (160 minutes, shaking in water at 25° C., read-out: Dissolved benomyl) was 9 µg/mL (≈ 31 µM). Further, in data set [7] (on addition of cyclodextrin, water 25° C.), the “further increase of the solubility caused by cyclodextrin” value was 1.5-2 -fold.

Take `COP(=S)(OC)Oc1ccc([N+](=O)[O-])cc1` [Methyl-parathion, 0,0-dimethyl-0-4-nitrophenyl-phosphorothioate]: the “stability against light and oxygen” value in data set [4] (cyclodextrin complexes) is “increase the stability against light and oxygen to a considerable extent”.
